Experimental data taken from EP4722215A1, “AMORPHOUS SUBSTANCE AND CRYSTAL OF DIOXOPIPERIDINE COMPOUND OR PHARMACEUTICALLY ACCEPTABLE SALT THEREOF, PREPARATION METHOD, AND USE” (Jiangsu Hengrui Pharmaceuticals Co., Ltd., priority 2023, dated 2024).
Where a name gives a salt, the structure may show the parent alone.

Assays:
[1] = Pharmacokinetic evaluation in cynomolgus monkeys, intragastric administration, plasma LC/MS/MS; assay type: in vivo; conditions: both sexes, cynomolgus monkey, po, i.g., 2.0 mg/kg
Experimental: Cynomolgus monkeys were used as test animals.
Eight cynomolgus monkeys (half male and half female, provided by Shanghai Medicilon Inc.) were evenly divided into 2 groups.
Access to food and ad libitum access to water were given 3 h after administration.

in vivo = conditions: both, beagle, dog, plasma, po, 2 mg/kg
Experimental: Beagles were used as test animals. The plasma concentrations of a compound of the present disclosure in beagles at different time points after intragastric (i.g.) administration were determined using an LC/MS/MS method. The pharmacokinetic behavior of the compound of the present disclosure in beagles was studied, and its pharmacokinetic profile was evaluated.
Eight beagles (half male and half female, provided by Jiangsu Johnbio Biotechnology Co., Ltd.) were evenly divided into 2 groups. The animals were fasted overnight and then subjected to intragastric administration.
The administration dose was 2.0 mg/kg, and the administration volume was 5.0 mL/kg.
The samples were then placed into EDTA-K2 anticoagulation test tubes and centrifuged at 10,000 rpm for 2 min (4 °C), and plasma was separated within 1 h and stored at -80 °C before analysis. The procedures from the blood collection to the centrifugation were performed under ice-bath conditions. Access to food was given 3 h after administration.
After administration of different concentrations of the test compounds, the plasma concentrations of the test compounds in the beagles were determined as follows: 50 µL of each of the beagle plasma samples collected at various time points after administration was taken; 25 µL of camptothecin (1 µg/mL) and 450 µL of acetonitrile were added to precipitate protein, and the mixture was vortex-mixed and then centrifuged at 3700 rpm for 10 min; 0.5 µL of the supernatant was taken for LC/MS/MS analysis.

[2] = Long-term/accelerated stability study (sealed in aluminum foil bags); assay type: physicochemical; conditions: for Crystal form: up to 6 months
Excerpt: The results are shown below. Table 16
The results are shown below. Table 20

[3] = Influencing factor stability study (open containers, high temperature / high humidity, 30 days); assay type: physicochemical
Experimental: Influencing factor stability study: Samples of the free-state form were taken, spread in open containers, and left to stand under high-temperature (40 °C and 60 °C) and high-humidity (RH 75% and RH 92.5%) conditions for 30 days to study its stability.
Influencing factor stability study of salt forms: Samples of the salt forms were taken, spread in open containers, and left to stand under high-temperature (40 °C and 60 °C) and high-humidity (RH 75%) conditions for 30 days to study their stability.

[4] = Dynamic vapor sorption (DVS) hygroscopicity; assay type: physicochemical
androgen receptor (AR) = molecular target: T1, androgen receptor (AR) (Homo sapiens, UniProt P10275, T878A); test: Degradation activity on androgen receptor in LNCaP cells (AR ELISA); assay type: cell-based; conditions: 0.1 nM R1881, 24 h
T1 construct: host or cells: LNCaP
T1 sequence (P10275 whole entry T878A): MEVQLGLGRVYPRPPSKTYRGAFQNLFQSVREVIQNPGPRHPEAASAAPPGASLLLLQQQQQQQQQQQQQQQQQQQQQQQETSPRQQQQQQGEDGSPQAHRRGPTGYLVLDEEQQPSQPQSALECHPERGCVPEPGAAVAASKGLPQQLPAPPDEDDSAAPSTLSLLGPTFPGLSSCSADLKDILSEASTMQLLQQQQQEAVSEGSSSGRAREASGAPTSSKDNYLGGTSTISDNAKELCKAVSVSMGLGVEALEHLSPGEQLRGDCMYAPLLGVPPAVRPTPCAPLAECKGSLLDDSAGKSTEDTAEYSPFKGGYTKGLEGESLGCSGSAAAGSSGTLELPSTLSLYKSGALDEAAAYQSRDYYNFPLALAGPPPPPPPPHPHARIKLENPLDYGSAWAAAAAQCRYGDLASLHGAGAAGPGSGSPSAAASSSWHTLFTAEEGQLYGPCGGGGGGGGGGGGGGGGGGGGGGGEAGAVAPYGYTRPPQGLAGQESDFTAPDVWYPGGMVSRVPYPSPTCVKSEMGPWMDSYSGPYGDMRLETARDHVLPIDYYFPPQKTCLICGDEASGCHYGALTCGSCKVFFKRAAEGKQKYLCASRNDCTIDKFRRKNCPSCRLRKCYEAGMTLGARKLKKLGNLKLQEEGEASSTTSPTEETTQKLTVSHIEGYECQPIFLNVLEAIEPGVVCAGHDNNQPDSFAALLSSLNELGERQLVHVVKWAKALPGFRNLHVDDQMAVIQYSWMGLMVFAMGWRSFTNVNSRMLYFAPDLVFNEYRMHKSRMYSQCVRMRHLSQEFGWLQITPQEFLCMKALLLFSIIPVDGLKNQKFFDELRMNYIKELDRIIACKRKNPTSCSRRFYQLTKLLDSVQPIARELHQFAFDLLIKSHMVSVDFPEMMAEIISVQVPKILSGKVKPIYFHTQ
T1 sequence (Q96SW2 whole entry partner): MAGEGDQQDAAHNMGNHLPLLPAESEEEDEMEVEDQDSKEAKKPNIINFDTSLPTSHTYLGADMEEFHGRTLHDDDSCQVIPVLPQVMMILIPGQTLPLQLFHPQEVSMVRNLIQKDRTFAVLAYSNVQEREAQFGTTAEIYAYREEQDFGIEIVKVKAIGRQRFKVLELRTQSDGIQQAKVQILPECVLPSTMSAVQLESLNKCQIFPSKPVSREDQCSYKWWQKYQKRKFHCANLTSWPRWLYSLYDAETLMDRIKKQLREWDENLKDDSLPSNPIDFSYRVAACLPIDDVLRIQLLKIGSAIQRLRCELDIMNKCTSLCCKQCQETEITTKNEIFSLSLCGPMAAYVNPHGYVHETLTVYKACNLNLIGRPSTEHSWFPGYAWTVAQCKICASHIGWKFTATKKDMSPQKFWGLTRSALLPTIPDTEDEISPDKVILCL
Experimental: After five washes, 100 µL of detection antibody working solution was added. […] After five washes, 100 µL of enzyme conjugate working solution was added. […] After five washes, 100 µL of substrate solution was added.

| SMILES | Purity (%) ([2]; 25 °C/60% RH, 1 month) | Purity (%) ([2]; 25 °C/60% RH, 2 months) | Purity (%) ([2]; 25 °C/60% RH, 3 months) | Purity (%) ([2]; 25 °C/60% RH, 6 months) | Purity (%) ([2]; 25 °C/60% RH, Initial) | Crystal form ([2]; 25 °C/60% RH) | Purity (%) ([2]; 40 °C/75% RH, 1 month) | Purity (%) ([2]; 40 °C/75% RH, 2 months) | Purity (%) ([2]; 40 °C/75% RH, 3 months) | Purity (%) ([2]; 40 °C/75% RH, 6 months) | Purity (%) ([2]; 40 °C/75% RH, Initial) | Crystal form ([2]; 40 °C/75% RH) | Crystal form ([3]; 40 °C, 5 days) | Purity (%) ([3]; 40 °C, 5 days) | Crystal form ([3]; 40 °C, 10 days) | Purity (%) ([3]; 40 °C, 10 days) | Purity (%) ([3]; 40 °C, 30 days) | Crystal form ([3]; 60 °C, 5 days) | Purity (%) ([3]; 60 °C, 5 days) | Crystal form ([3]; 60 °C, 10 days) | also measured |
| --- | --- | --- | --- | --- | --- | --- | --- | --- | --- | --- | --- | --- | --- | --- | --- | --- | --- | --- | --- | --- | --- |
| N#Cc1ccc(O[C@H]2CC[C@H](NC(=O)c3ccc(N4CCC(CN5CCN(c6cc7c(cc6F)C(=O)N(C6CCC(=O)NC6=O)C7=O)CC5)CC4)nn3)CC2)cc1Cl (stereo partly drawn) [ARV-110] |  |  |  |  |  |  |  |  |  |  |  |  |  |  |  |  |  |  |  |  | AUC(0-t) ([1]; read-out: Area under curve AUC0-t): 282 ng·h/mL; CL/F ([1]; read-out: Clearance rate CL/F): 44.6 mL/min/kg; Cmax ([1]; read-out: Plasma concentration Cmax): 15.9 ng/mL; AUC(0-t) (in vivo): 239 ng·h/mL; CL/F (in vivo): 70.9 mL/min/kg; Cmax (in vivo): 13 ng/mL |
| C[C@H]1CC2(CCN(c3ccc(C(=O)N4CCC(CN5CCN(c6cccc(N[C@H]7CCC(=O)NC7=O)c6)CC5)CC4)cc3F)CC2)CN1c1ccc(C#N)c(Cl)c1 [Amorphous form of maleate] | 98.9% | 98.9% | 98.9% | 98.7% | 98.9% | No change | 98.7% | 98.6% | 98.3% | 94.8% | 98.9% | No change |  |  |  |  |  |  |  |  |  |
| C[C@H]1CC2(CCN(c3ccc(C(=O)N4CCC(CN5CCN(c6cccc(N[C@H]7CCC(=O)NC7=O)c6)CC5)CC4)cc3F)CC2)CN1c1ccc(C#N)c(Cl)c1 [Amorphous form, 2-chloro-4-((S)-8-(4-(4-((4-(3-(((S)-2,6-dioxopiperidin-3-yl)amino)phenyl)piperazin-1-yl)methyl)piperidine-1-carbonyl)-2-fluorophenyl)-3-methyl-2,8-diazaspiro[4.5]decan-2-yl)benzonitrile] | 98.7% | 98.5% | 98.5% | 98.5% | 98.8% | No change | 98.7% | 98.4% | 98.4% | 98.3% | 98.8% | No change | No change | 98.7% | No change | 98.6% | 98.6% | No change | 98.6% | No change | physical and chemical stability ([2]; long-term accelerated conditions for 6 months): good physical and chemical stability; Crystal form ([3]; 40 °C, 30 days): No change; Purity (%) ([3]; 60 °C, 10 days): 98.6%; Crystal form ([3]; 60 °C, 30 days): No change; Purity (%) ([3]; 60 °C, 30 days): 98.4%; Crystal form ([3]; 75% RH, 5 days): No change; Purity (%) ([3]; 75% RH, 5 days): 98.7%; Crystal form ([3]; 75% RH, 10 days): No change; Purity (%) ([3]; 75% RH, 10 days): 98.7%; Crystal form ([3]; 75% RH, 30 days): No change; Purity (%) ([3]; 75% RH, 30 days): 98.7%; Crystal form ([3]; 92.5% RH, 5 days): No change; Purity (%) ([3]; 92.5% RH, 5 days): 98.7%; Crystal form ([3]; 92.5% RH, 10 days): No change; Purity (%) ([3]; 92.5% RH, 10 days): 98.7%; Crystal form ([3]; 92.5% RH, 30 days): No change; Purity (%) ([3]; 92.5% RH, 30 days): 98.6%; Purity (%) ([3]; Initial, 0 days): 98.8%; chemical stability ([3]; high-temperature and high-humidity conditions): good chemical stability |
| C[C@H]1CC2(CCN(c3ccc(C(=O)N4CCC(CN5CCN(c6cccc(N[C@H]7CCC(=O)NC7=O)c6)CC5)CC4)cc3F)CC2)CN1c1ccc(C#N)c(Cl)c1 [Crystal form A of mandelate] | 99.4% | 99.3% | 99.3% | 99.3% | 99.4% | No change | 99.4% | 99.3% | 99.3% | 98.9% | 99.4% | No change | No change | 98.6% | No change | 98.6% | 98.4% | No change | 98.4% | No change | hygroscopic weight gain ([4]; accelerated test conditions, 70% RH): about 1.047%; crystal form before and after DVS testing (XRPD) ([4]; before and after DVS testing): did not change; hygroscopic weight gain ([4]; extreme conditions, 90% RH): about 2.245%; hygroscopic weight gain ([4]; normal storage conditions, 25 °C and 60% RH): about 0.833%; Crystal form ([3]; 40 °C, 30 days): No change; Purity (%) ([3]; 60 °C, 10 days): 98.5%; Crystal form ([3]; 60 °C, 30 days): No change; Purity (%) ([3]; 60 °C, 30 days): 98.2%; Crystal form ([3]; 75% RH, 5 days): No change; Purity (%) ([3]; 75% RH, 5 days): 98.5%; Crystal form ([3]; 75% RH, 10 days): No change; Purity (%) ([3]; 75% RH, 10 days): 98.5%; Crystal form ([3]; 75% RH, 30 days): No change; Purity (%) ([3]; 75% RH, 30 days): 98.5%; Purity (%) ([3]; Initial, 0 days): 98.6% |
| C[C@H]1CC2(CCN(c3ccc(C(=O)N4CCC(CN5CCN(c6cccc(N[C@H]7CCC(=O)NC7=O)c6)CC5)CC4)cc3F)CC2)CN1c1ccc(C#N)c(Cl)c1 [Crystal form B of succinate] | 98.5% | 98.5% | 98.7% | 98.6% | 98.7% | No change | 98.5% | 98.5% | 98.5% | 98.3% | 98.7% | No change |  |  |  |  |  |  |  |  |  |
| C[C@H]1CC2(CCN(c3ccc(C(=O)N4CCC(CN5CCN(c6cccc(N[C@H]7CCC(=O)NC7=O)c6)CC5)CC4)cc3F)CC2)CN1c1ccc(C#N)c(Cl)c1 [Crystal form I of hydrochloride] |  |  |  |  |  |  |  |  |  |  |  |  | No change | 97.5% | No change | 96.9% | 95.3% | No change | 97.2% | No change | Purity (%) ([3]; 60 °C, 10 days): 96.5%; Purity (%) ([3]; 60 °C, 30 days): 94.5%; Crystal form ([3]; 75% RH, 5 days): No change; Purity (%) ([3]; 75% RH, 5 days): 97.5%; Crystal form ([3]; 75% RH, 10 days): No change; Purity (%) ([3]; 75% RH, 10 days): 97.1%; Purity (%) ([3]; 75% RH, 30 days): 96.5%; Purity (%) ([3]; Initial, 0 days): 98.1% |
| C[C@H]1CC2(CCN(c3ccc(C(=O)N4CCC(CN5CCN(c6cccc(NC7CCC(=O)NC7=O)c6)CC5)CC4)cc3F)CC2)CN1c1ccc(C#N)c(Cl)c1 (stereo partly drawn) [Example 1, 2-Chloro-4-((3S)-8-(4-(4-((4-(3-((2,6-dioxopiperidin-3-yl)amino)phenyl)piperazin-1-yl)methyl)piperidine-1-carbonyl)-2-fluorophenyl)-3-methyl-2,8-diazaspiro[4.5]decan-2-yl)benzonitrile] |  |  |  |  |  |  |  |  |  |  |  |  |  |  |  |  |  |  |  |  | DC50 (androgen receptor (AR)): 2.5 nM |
| C[C@H]1CC2(CCN(c3ccc(C(=O)N4CCC(CN5CCN(c6cccc(N[C@H]7CCC(=O)NC7=O)c6)CC5)CC4)cc3F)CC2)CN1c1ccc(C#N)c(Cl)c1 [Example 1-1, 2-Chloro-4-((S)-8-(4-(4-((4-(3-(((S)-2,6-dioxopiperidin-3-yl)amino)phenyl)piperazin-1-yl)methyl)piperidine-1-carbonyl)-2-fluorophenyl)-3-methyl-2,8-diazaspiro[4.5]decan-2-yl)benzonitrile] |  |  |  |  |  |  |  |  |  |  |  |  |  |  |  |  |  |  |  |  | DC50 (androgen receptor (AR)): 4.2 nM |
| C[C@H]1CC2(CCN(c3ccc(C(=O)N4CCC(CN5CCN(c6cccc(N[C@@H]7CCC(=O)NC7=O)c6)CC5)CC4)cc3F)CC2)CN1c1ccc(C#N)c(Cl)c1 [Example 1-2, 2-Chloro-4-((S)-8-(4-(4-((4-(3-(((R)-2,6-dioxopiperidin-3-yl)amino)phenyl)piperazin-1-yl)methyl)piperidine-1-carbonyl)-2-fluorophenyl)-3-methyl-2,8-diazaspiro[4.5]decan-2-yl)benzonitrile] |  |  |  |  |  |  |  |  |  |  |  |  |  |  |  |  |  |  |  |  | DC50 (androgen receptor (AR)): 14.2 nM |
